Measured values taken from patent US6166290A, “Glutathione-S-conjugate transport in plants” (The Trustees of the University of Pennsylvania, priority 1997, dated 2000).
“And” between values parts separate entries of the source, which are not always exact repeats. Equal values may be shown once.

Key:
[1] = target: T1, AtMRP2 (Arabidopsis thaliana, UniProt Q42093); assay: AtMRP2-dependent uptake by membrane vesicles from pYES3-AtMRP2-transformed DTY168 cells; type: biochemical
T1 construct: S. cerevisiae DTY168 (ycf1 null) vacuolar-enriched membrane vesicles
Description: (§1) Cells were grown and vacuolar membrane-enriched vesicles were prepared as described (Kim et al., 1995, J Biol. Chem. 270:2630-2635-). […] Uptake was terminated by the addition of 1 ml ice-cold wash medium (400 mM sorbitol/3 mM Tris-Mes, pH 8.0) and vacuum filtration of the suspension through prewetted Millipore HA cellulose nitrate filters (pore size 0.45 μm). The filters were rinsed twice with wash medium, and the retained radioactivity was determined by liquid scintillation counting. Nonenergized uptake was estimated by the same procedure except that ATP was omitted from the uptake medium.
Membranes from DTY168/pYES3-AtMRP2 cells were incubated for 10 minutes in standard uptake medium containing 61.3 μM [^3 H]DNP-GS after which time 200 mM glucose and 50 units/ml hexokinase (Type F-300 from baker's yeast) were added. […] Control samples were treated identically except that no additions were made after the initial 10 minute incubation period.

[2] = target: T2, AtMRP1 (Arabidopsis thaliana, UniProt Q9C8G9); assay: AtMRP1-dependent uptake by membrane vesicles from pYES3-AtMRP1-transformed DTY168 cells; type: biochemical; design: rate of C3G-GS uptake: unit not given here
T2 construct: S. cerevisiae DTY168 (ycf1 null) vacuolar-enriched membrane vesicles
Description: S. cerevisiae strain DTY168 (MATα his6, leu2-3, -112, ura3-52 ycf1::hisG) was transformed with pYES3-AtMRP1 or empty vector lacking the AtMRP1 insert (pYES3) by the LiOAc/PEG method (Giest et al., 1991, Yeast 7:253-263) and selected for uracil prototrophy by plating on AHC medium containing tryptophan (Kim et al., 1994, supra).
For the preparation of membrane vesicles, 15 ml volumes of stationary phase cultures of the transformants were diluted into 1 L of fresh AHC medium and grown to an OD600 nm of about 1.2. Membrane vesicles were purified as described herein and in Kim et al. (1995, supra).
[…] μl reaction volumes containing 3 mM ATP, 3 mM MgSO4, 5 μM gramicidin-D, 10 mM creatine phosphate, 16 units/ml creatine kinase, 50 mM KCl, 1 mg/ml BSA, 400 mM sorbitol, 25 mM Tris-Mes ([…]).
as §1

[3] = test system: vacuolar GS-X pump (vacuolar membrane vesicles, V. radiata hypocotyls); assay: GS-conjugate uptake by vacuolar membrane vesicles from etiolated hypocotyls of V. radiata; type: biochemical, Vigna radiata
Description: Values shown are means ±SE (n=3).
Vacuolar membrane vesicles were purified from etiolated hypocotyls of V. radiata cv.
Unless otherwise indicated, [^3 H]medicarpin or [3H]medicarpin-GS uptake was measured at 25° C. in 200 μl reaction volumes containing 3 mM ATP, 3 mM MgSO4, 10 mM creatine phosphate, 16 U/ml creatine kinase, 50 mM KCl, 0.1% (w/v) BSA, 400 mM sorbitol and 25 mM Tris-Mes buffer, pH 8.0. Uptake was initiated by the addition of 12 μl membrane vesicles (30-40 μg protein) and brief mixing of the samples on a vortex mixer. Uptake was terminated by the addition of 1 ml ice-cold wash medium (400 mM sorbitol, 3 mM Tris-Mes, pH 8.0) and vacuum filtration of the suspension through prewetted HA cellulose nitrate filters (pore diameter 0.45 μm). The filters were rinsed twice with a 1 ml ice-cold wash medium, air-dried and radioactivity was determined by liquid scintillation counting.

[4] = test system: vacuolar GS-X pump (vacuolar membrane vesicles, Z. mays roots); assay: GS-conjugate uptake by vacuolar membrane vesicles from roots of Z. mays; type: biochemical, Zea mays
[5] = test system: vacuolar GS-X pump (vacuolar membrane vesicles, V. radiata hypocotyls); conditions: cited from earlier work
[6] = target: T3, YCF1 (vacuolar membrane vesicles purified from DTY165 cells) (Saccharomyces cerevisiae, UniProt P39109); assay: [3H]DNP-GS uptake by vacuolar membrane vesicles purified from DTY165 cells; type: biochemical
T3 construct: endogenous in cells; host or cells: S. cerevisiae DTY165 (wild type YCF1), vacuolar membrane vesicles
Description: (§2) For the routine preparation of vacuolar membrane vesicles, 15 ml of stationary phase cultures of DTY165 or DTY167 were diluted into 1-liter volumes of fresh YPD medium, grown for 24 hours at 30° C. to an OD600 nm of approximately 0.8 and collected by centrifugation. After washing with distilled water, the cells were converted to spheroplasts with Zymolyase 20T (ICN) (Kim et al., 1994, supra) and intact vacuoles were isolated by flotation centrifugation of spheroplast lysates on Ficoll 400 step gradients as described by Roberts et al. (1991, Methods. Enzymol. 194:644-661). Both the spheroplast lysis buffer and Ficoll gradients contained 2 mg/ml bovine serum albumin, 1 μg/ml aprotinin, 1 μg/ml leupeptin, 1 μg/ml pepstatin, and 1 mM PMSF to minimize proteolysis. The resulting vacuole fraction was vesiculated in 5 mM MgCl2, 25 mM KCl, 10 mM Tris-Mes (pH 6.9) containing 2 mg/ml bovine serum albumin, 1 μg/ml aprotinin, 1 μg/ml leupeptin, 1 μg/ml pepstatin, and 1 mM PMSF, pelleted by centrifugation at 37,000× g for 25 min, and resuspended in suspension medium (1.1 M glycerol, 2 mM dithiothreitol, 1 mM Tris-EGTA, 2 mg/ml bovine serum albumin, 1 μg/ml aprotinin, 1 μg/ml leupeptin, 1 μg/ml pepstatin, 1 mM PMSF, 5 mM Tris-Mes, pH 7.6) (Kim et al., 1995, J. Biol. Chem. 270:2630-2635).
(§3) Unless otherwise indicated, [^3 H]DNP-GS uptake was measured at 25° C. in 200 μl reaction volumes containing 3 mM ATP, 3 mM MgSO4, 5 μM gramicidin-D, 10 mM creatine phosphate, 16 units/ml creatine kinase, 50 mM KC 1, 1 mg/ml bovine serum albumin, 400 mM sorbitol, 25 mM Tris-Mes (pH 8.0), and 66.2 μM [^3 H]DNP-GS (8.7 mCi/mmol) (Li et al., 1995, supra). […] Uptake was initiated by the addition of vacuolar membrane vesicles (10-15 μg of membrane protein), brief mixing of the samples on a vortex mixer and uptake was then allowed to proceed for 1-60 minutes. Uptake was terminated by the addition of 1 ml of ice-cold wash medium (400 mM sorbitol, 3 mM Tris-Mes, pH 8.0) and vacuum filtration of the suspension through prewetted Millipore HA cellulose nitrate membrane filters (pore diameter, 0.45 μm). The filters were rinsed twice with 1 ml of ice-cold wash medium and air-dried, and radioactivity was determined by liquid scintillation counting in BCS mixture (Amersham Corp.). Nonenergized [^3 H]DNP-GS uptake and extravesicular solution trapped on the filters were enumerated by the same procedure except that ATP and Mg^2 +were omitted from the uptake medium.

[7] = test system: vacuolar membrane vesicles purified from DTY167 cells (ycf1Δ mutant); type: biochemical, Saccharomyces cerevisiae
Description: as §2, §3

[8] = target: T3, YCF1 (vacuolar membrane vesicles purified from DTY165 cells); assay: biochemical; type: biochemical
Description: (§4) In experiments involving cadmium transport, dithiothreitol and EGTA were removed from the suspension medium to prevent the attenuation of YCF1-dependent Cd^2+ transport otherwise exerted by these compounds. Vesiculated vacuolar membranes were subjected to three cycles of 50-fold dilution into simplified suspension medium (1.1 M glycerol, 5 mM Tris-Mes, pH 8.0), centrifugation at 100,000× g for 35 minutes and resuspension in the same medium before use.
(§5) Singly radiolabeled ^109 Cd.GSn and doubly radio-labeled ^109 Cd[^3 H].GS^n complexes were prepared by sequential gel-filtrationand anion-exchange chromatography of the reaction products generated by incubating 20 mM ^109 CdSO4 (78.4 mCi/mmol) with 40 mM GSH or 40 mM [^3 H]GSH (240 mCi/mmol) in 15 ml 10 mM phosphate buffer (pH 8.0) containing 150 mM KNO3 at 45° C. for 24 hours. For gel-filtration, 2 ml aliquots of the reaction mixture were applied to a column (40×1.5 cm ID) packed with water-equilibrated Sephadex G-1 5, eluted with deionized water and ^109 Cd and/or ^3 H in the fractions was measured by liquid scintillation counting. The fractions encompassed by each of the two ^109 Cd.GSn peaks identified were pooled, lyophilized and redissolved in 4 ml of loading buffer (5 mM Tris-Mes, pH 8.0). For anion-exchange chromatography, 0.5 ml aliquots of the resuspended lyophilizates from gel-filtration chromatography were applied to a Mono-Q HR5/5 column (Pharmacia) equilibrated with the same buffer. Elution was with a linear gradient of NaCl (0.5 ml/minute; 0-500 mM) dissolved in loading buffer. The individual fractions corresponding to the major peaks of ^109 Cd obtained from the Mono-Q column (one each for the peaks resolved by gel-filtration chromatography) were pooled, lyophilized and resuspended in 4 ml deionized water after liquid scintillation counting.
(§6) MgATP-energized, uncoupler-insensitive ^109 Cd^2+ uptake by vacuolar membrane vesicles was measured at 25° C. in 200 μl reaction volumes containing 3 mM ATP, 3 mM MgSO4, 5 μM gramicidin-D, 10 mM creatine phosphate, 16 units/ml creatine kinase, 50 mM KCl, 400 mM sorbitol, 25 mM Tris-Mes (pH 8.0) and the indicated concentrations of ^109 CdSO4, GSH or ^109 Cd- and/or ^3 H-labeled purified Cd.GSn complexes as described herein except that the wash media contained 100 μM CdSO4 in addition to sorbitol (400 mM) and Tris-Mes (3 mM, pH 8.0).

[9] = test system: vacuolar membrane vesicles purified from DTY167 cells (ycf1Δ mutant); type: biochemical, Saccharomyces cerevisiae; remark: listed apart in the source
Description: as §4, §5, §6

[10] = 66.2 μM DNP-GS, 3 mM MgATP (omitted with MgAMP-PNP), MgAMP-PNP 3 mM, bafilomycin A1 0.5 μM, FCCP 5 μM, gramicidin D 5 μM, NH4Cl 1 mM
[11] = as Table 1 concentrations, 10 min
[12] = 50 μM 109Cd.GS2, bafilomycin A1 0.5 μM, FCCP 5 μM, gramicidin-D 5 μM, NH4Cl 1 mM
[13] = as Table 7 concentrations, 10 min
[14] = gramicidin-D 5 μM, vanadate 10 μM, DNP-GS 100 μM
[15] = MgATP-dependent, uncoupler-insensitive

T3 sequence (P39109 whole entry): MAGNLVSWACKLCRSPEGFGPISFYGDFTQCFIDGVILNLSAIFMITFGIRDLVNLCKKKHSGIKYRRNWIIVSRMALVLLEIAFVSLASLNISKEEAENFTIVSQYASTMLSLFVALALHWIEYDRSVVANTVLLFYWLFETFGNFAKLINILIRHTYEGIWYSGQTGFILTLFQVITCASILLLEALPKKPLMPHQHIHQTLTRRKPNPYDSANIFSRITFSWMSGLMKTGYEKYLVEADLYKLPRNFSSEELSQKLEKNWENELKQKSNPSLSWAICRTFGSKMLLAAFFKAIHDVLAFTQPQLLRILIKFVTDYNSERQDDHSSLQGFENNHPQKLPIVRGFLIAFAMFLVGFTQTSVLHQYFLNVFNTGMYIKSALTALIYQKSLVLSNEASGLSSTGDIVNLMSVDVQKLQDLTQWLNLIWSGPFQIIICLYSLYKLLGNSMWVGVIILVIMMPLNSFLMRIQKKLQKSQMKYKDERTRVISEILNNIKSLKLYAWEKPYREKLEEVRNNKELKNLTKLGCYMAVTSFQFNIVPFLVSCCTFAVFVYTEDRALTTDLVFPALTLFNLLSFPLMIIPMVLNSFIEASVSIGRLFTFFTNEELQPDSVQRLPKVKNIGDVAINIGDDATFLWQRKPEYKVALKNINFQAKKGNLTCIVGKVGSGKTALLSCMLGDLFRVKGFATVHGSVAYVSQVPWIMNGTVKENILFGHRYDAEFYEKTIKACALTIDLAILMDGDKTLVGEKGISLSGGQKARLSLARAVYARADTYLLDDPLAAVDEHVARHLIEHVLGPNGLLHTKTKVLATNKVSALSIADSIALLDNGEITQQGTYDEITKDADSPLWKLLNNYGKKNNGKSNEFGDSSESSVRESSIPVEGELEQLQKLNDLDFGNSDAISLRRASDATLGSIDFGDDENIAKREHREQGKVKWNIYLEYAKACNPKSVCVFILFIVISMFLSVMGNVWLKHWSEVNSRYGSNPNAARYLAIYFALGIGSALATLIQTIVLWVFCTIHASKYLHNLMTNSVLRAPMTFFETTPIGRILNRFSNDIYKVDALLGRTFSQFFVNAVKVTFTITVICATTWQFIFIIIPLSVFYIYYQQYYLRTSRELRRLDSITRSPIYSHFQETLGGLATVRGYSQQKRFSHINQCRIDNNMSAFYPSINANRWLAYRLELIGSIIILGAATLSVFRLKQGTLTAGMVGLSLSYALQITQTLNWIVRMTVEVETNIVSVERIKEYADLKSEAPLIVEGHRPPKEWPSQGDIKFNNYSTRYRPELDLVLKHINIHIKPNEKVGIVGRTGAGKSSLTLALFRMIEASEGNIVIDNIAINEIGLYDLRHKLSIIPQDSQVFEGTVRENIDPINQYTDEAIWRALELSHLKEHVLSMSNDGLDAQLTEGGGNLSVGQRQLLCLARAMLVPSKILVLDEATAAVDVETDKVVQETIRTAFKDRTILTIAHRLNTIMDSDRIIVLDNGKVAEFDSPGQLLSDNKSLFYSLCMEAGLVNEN
T2 sequence (Q9C8G9 whole entry): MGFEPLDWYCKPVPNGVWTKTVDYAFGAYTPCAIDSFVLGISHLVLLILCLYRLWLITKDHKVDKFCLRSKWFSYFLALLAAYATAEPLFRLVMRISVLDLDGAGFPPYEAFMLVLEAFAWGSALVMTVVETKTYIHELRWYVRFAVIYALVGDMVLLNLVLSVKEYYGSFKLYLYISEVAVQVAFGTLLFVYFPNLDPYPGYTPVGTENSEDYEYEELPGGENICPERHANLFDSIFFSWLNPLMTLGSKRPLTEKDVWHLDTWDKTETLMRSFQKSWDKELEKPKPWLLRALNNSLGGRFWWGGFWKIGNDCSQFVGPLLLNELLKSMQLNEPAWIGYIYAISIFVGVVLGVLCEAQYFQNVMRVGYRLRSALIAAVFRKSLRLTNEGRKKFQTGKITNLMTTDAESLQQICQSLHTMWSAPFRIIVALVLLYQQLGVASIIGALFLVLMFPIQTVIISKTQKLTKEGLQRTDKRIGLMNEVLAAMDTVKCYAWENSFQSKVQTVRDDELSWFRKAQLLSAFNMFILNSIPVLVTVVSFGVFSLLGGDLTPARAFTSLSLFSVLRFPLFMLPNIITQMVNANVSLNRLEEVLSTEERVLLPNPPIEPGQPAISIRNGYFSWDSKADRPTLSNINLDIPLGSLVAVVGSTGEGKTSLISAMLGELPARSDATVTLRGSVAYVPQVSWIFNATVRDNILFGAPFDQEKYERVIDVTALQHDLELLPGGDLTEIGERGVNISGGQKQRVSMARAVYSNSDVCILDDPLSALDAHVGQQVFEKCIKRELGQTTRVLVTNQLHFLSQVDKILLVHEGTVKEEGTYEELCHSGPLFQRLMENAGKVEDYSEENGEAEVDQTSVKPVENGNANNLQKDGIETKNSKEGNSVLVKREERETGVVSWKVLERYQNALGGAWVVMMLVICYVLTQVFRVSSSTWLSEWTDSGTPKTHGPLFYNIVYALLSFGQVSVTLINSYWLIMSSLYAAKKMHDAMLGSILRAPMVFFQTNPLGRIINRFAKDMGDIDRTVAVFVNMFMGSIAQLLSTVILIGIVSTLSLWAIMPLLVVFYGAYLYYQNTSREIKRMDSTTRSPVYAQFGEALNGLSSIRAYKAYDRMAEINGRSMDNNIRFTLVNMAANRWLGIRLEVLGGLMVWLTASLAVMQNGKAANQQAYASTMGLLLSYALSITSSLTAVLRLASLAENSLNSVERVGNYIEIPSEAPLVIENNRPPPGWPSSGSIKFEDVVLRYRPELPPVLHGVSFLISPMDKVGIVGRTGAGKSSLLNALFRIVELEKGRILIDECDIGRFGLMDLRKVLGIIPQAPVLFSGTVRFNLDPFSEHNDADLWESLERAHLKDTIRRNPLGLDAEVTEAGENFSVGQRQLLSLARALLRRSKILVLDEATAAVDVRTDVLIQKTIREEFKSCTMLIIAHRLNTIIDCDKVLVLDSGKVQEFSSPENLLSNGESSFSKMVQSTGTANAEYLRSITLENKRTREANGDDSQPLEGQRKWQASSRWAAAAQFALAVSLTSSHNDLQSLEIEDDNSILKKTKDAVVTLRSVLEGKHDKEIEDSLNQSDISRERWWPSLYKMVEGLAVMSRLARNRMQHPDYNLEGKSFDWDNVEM
T1 sequence (Q42093 whole entry): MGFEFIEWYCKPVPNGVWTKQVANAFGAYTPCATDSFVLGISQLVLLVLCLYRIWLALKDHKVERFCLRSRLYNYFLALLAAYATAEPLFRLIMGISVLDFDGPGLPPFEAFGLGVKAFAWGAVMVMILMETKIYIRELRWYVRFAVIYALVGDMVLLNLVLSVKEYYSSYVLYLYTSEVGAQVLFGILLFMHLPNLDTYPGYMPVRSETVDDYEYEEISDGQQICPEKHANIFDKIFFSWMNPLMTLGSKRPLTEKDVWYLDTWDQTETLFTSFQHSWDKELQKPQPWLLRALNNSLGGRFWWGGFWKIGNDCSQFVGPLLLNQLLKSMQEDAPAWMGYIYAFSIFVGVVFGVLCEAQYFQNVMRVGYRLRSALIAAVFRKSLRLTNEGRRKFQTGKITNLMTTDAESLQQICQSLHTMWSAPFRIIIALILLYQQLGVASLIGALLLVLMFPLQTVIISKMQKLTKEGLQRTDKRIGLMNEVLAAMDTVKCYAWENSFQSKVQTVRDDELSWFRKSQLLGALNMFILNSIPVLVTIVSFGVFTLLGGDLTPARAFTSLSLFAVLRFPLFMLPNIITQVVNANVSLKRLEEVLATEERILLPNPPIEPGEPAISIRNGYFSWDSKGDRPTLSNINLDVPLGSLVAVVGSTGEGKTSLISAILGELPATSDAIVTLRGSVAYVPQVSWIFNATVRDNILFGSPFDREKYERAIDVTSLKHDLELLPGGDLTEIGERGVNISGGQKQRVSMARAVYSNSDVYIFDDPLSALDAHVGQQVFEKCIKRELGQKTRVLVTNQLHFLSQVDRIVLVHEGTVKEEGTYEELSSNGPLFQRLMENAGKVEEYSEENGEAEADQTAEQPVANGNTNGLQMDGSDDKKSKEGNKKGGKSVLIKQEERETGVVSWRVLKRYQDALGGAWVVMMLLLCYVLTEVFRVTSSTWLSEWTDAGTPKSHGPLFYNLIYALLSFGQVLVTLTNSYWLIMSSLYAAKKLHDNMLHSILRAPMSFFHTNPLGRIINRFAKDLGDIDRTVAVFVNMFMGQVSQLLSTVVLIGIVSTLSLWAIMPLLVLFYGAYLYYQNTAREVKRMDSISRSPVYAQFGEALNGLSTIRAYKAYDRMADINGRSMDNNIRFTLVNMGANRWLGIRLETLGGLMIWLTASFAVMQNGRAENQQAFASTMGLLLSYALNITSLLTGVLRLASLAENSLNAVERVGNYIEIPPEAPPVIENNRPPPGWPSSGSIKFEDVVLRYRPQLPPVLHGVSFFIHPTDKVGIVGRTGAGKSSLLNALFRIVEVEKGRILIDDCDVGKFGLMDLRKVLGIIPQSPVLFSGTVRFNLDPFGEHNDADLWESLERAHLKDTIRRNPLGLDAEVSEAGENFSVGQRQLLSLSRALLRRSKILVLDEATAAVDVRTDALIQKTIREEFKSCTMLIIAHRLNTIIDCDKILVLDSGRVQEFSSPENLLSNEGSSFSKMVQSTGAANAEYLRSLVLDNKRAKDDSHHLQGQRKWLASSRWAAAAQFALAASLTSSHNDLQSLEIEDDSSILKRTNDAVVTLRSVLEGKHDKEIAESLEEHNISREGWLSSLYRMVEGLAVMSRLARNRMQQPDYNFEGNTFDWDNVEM

Triton X-100
release (efflux) of accumulated [3H]DNP-GS after hexokinase trap [1]: more than 3 fold

cyanin-3-glucoside-GS [C3G-GS]
rate of C3G-GS uptake ([2]; 50 μM): 7.9±0.7
rate of C3G-GS uptake ([1]; 50 μM): 48.4±2.2 nmol/mg/10 min
Vmax for MgATP-dependent, uncoupler-insensitive uptake ([3]; V. radiata): 45.3 ± 6.5 nmol/mg/10 min
Km ([3]; V. radiata, read-out: Km for MgATP-dependent, uncoupler-insensitive uptake): 45.7 ± 14 µM
Vmax for MgATP-dependent, uncoupler-insensitive uptake [4]: 79.1 ± 14.7 nmol/mg/10 min
Km ([4]; read-out: Km for MgATP-dependent, uncoupler-insensitive uptake): 39.5 ± 16.6 µM
Km estimated previously in this system [5]: 46 µM
Vmax of GS-X pump ([5]; comparison value for C3G-GS): 45 nmol/mg/min

O=[N+]([O-])c1ccc(Cl)c([N+](=O)[O-])c1 [DNP]
MgATP-dependent, uncoupler-insensitive uptake of unconjugated precursor detectable [2]: In no case
MgATP-dependent, uncoupler-insensitive uptake of unconjugated precursor detectable [1]: In no case

CCc1cccc(C)c1N(C(=O)CCl)C(C)COC (stereo not drawn) [metolachlor]
MgATP-dependent, uncoupler-insensitive uptake of unconjugated precursor detectable [2]: In no case
MgATP-dependent, uncoupler-insensitive uptake of unconjugated precursor detectable [1]: In no case

Gramicidin D
DNP-GS uptake plus the compound indicated [6, 10]: 45.8 ± 1.4 nmol/mg/10 minutes
DNP-GS uptake as percentage of control plus the compound indicated [6, 11]: 58.9%
DNP-GS uptake plus the compound indicated [7, 10]: 5.8 ± 0.1 nmol/mg/10 minutes
DNP-GS uptake as percentage of control plus the compound indicated [7, 11]: 37.7%
109Cd.GS2 uptake plus addition [8, 12]: 77.8 ± 6.4 nmol/mg/10 minutes
109Cd.GS2 uptake as percentage of control [8, 13]: 73.5%
decrease of MgATP-dependent Cd.GS2 uptake ([8]; text to Table 7): 22%
109Cd.GS2 uptake plus addition [9, 12]: 9.3 ± 2.0 nmol/mg/10 minutes
109Cd.GS2 uptake as percentage of control [9, 13]: 56.6%
[3H]Medicarpin-GS uptake with treatment, +MgATP ([3]; 65 μM medicarpin-GS, 3 mM MgATP, gramicidin-D 5 μM, vanadate 10 μM, DNP-GS 100 μM): 71.2 ± 3.0 nmol/mg/10 minutes
[3H]Medicarpin-GS uptake with treatment, -MgATP ([3]; 65 μM medicarpin-GS, gramicidin-D 5 μM, vanadate 10 μM, DNP-GS 100 μM): 13.2 ± 2.1 nmol/mg/10 minutes
[3H]Medicarpin-GS uptake as percentage of control, +MgATP [3, 14]: 83.2%
[3H]Medicarpin-GS uptake as percentage of control, -MgATP [3, 14]: 79.0%
inhibition of MgATP-dependent [3H]medicarpin-GS uptake ([3]; vanadate 10 μM, DNP-GS 100 μM, gramicidin D): 17%

N[C@@H](CCC(=O)N[C@@H](CS)C(=O)NCC(=O)O)C(=O)O [GSH, glutathione]
MgATP-dependent, uncoupler-insensitive DNP-GS uptake plus compound [6]: 50.6 ± 2.3 nmol/mg/10 minutes
MgATP-dependent, uncoupler-insensitive DNP-GS uptake as percentage of control ([6]; dty165 vacuolar membrane vesicles, 10 min): 105.6
MgATP-dependent, uncoupler-insensitive DNP-GS uptake plus compound [7]: 4.6 ± 1.1 nmol/mg/10 minutes
MgATP-dependent, uncoupler-insensitive DNP-GS uptake as percentage of control ([7]; dty167 vacuolar membrane vesicles, 10 min): 70.8
t1/2 of GSH stimulation of Cd2+ uptake [8]: < 5 min
MgATP-dependent, uncoupler-insensitive uptake of unconjugated precursor detectable [2]: In no case
MgATP-dependent, uncoupler-insensitive uptake of unconjugated precursor detectable [1]: In no case

C=CC1=C(C)C(Cc2[nH]c(C3c4[nH]c(Cc5[nH]c(C=O)c(C)c5CCOC(=O)CC(=O)O)c(C)c4C(=O)C3C(=O)O)c(CCC(=O)O)c2C)NC1=O (stereo not drawn) [Bn-NCC-1]
Km for AtMRP1-dependent uptake [2, 15]: Linear
Km [1, 15]: 15.2 µM and 15 µM
Vmax for AtMRP2-dependent uptake [1, 15]: 63.1 ± 2.5 nmol/mg/10 min

OC[C@H]1O[C@@H](Oc2cc3c(O)cc(O)cc3[o+]c2-c2ccc(O)c(O)c2)[C@H](O)[C@@H](O)[C@@H]1O [C3G, cyanidin-3-glucoside]
MgATP-dependent, uncoupler-insensitive uptake of unconjugated precursor detectable [2]: In no case
MgATP-dependent, uncoupler-insensitive uptake of unconjugated precursor detectable [1]: In no case
